According to PubChem BioAssay (NCI):
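Five compound concentrations were applied to cells in 96-well plates for 48 hours; endpoints were derived by simple linear interpolation of the resulting dose-response curve. Here, GI50 denotes the concentration required for 50% inhibition of growth. At the TGI there is no net growth.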

Columns and labels:
Experiment in all cases: growth of human tumour cells (NCI), 48 h
[1] = system: 786-0 renal
[2] = system: A498 renal
[3] = system: A549 NSCLC
[4] = system: ACHN renal
[5] = system: BT-549 breast
[6] = system: CAKI-1 renal
[7] = system: CCRF-CEM leukemia
[8] = system: COLO 205 colon
[9] = system: DU-145 prostate
[10] = system: HCC-2998 colon
[11] = system: HCT-116 colon
[12] = system: HCT-15 colon
[13] = system: HL-60(TB) leukemia
[14] = system: HOP-62 NSCLC
[15] = system: HOP-92 NSCLC
[16] = system: HS 578T breast
[17] = system: HT29 colon
[18] = system: IGROV1 ovarian
[19] = system: K-562 leukemia
[20] = system: KM12 colon
[21] = system: LOX IMVI melanoma
[22] = system: M14 melanoma
[23] = system: MALME-3M melanoma
[24] = system: MCF7 breast
[25] = system: MDA-MB-231 breast
[26] = system: MDA-MB-435
[27] = system: MOLT-4 leukemia
[28] = system: NCI-H226 lung
[29] = system: NCI-H23 lung

Nc1c(C(=O)c2cccc(-c3ccncc3)c2)cnn1-c1ccc(F)cc1 was tested, and the GI50 [1] was greater than 25 µM, the TGI [1] was greater than 25 µM and the GI50 [2] was greater than 25 µM. It also gave a TGI [2] greater than 25 µM, a GI50 [3] greater than 25 µM and a TGI [3] greater than 25 µM. The GI50 [4] was greater than 25 µM, the TGI [4] was greater than 25 µM and the GI50 [5] was greater than 25 µM. The TGI [5] was greater than 25 µM, the GI50 [6] was greater than 25 µM and the TGI [6] was greater than 25 µM. The GI50 [7] was greater than 25 µM, the TGI [7] was greater than 25 µM and the GI50 [8] was greater than 25 µM. It also gave a TGI [8] greater than 25 µM, a GI50 [9] greater than 25 µM and a TGI [9] greater than 25 µM. For the same molecule, the GI50 [10] was greater than 25 µM, the TGI [10] was greater than 25 µM and the GI50 [11] was greater than 25 µM. The TGI [11] was greater than 25 µM, the GI50 [12] was greater than 25 µM and the TGI [12] was greater than 25 µM. For the same molecule, the GI50 [13] was greater than 5.67 µM, the TGI [13] was greater than 25 µM and the GI50 [14] was greater than 23.3 µM. The TGI [14] was greater than 25 µM, the GI50 [15] was greater than 25 µM and the TGI [15] was greater than 25 µM. It also gave a GI50 [16] greater than 25 µM, a TGI [16] greater than 25 µM and a GI50 [17] greater than 25 µM. For the same molecule, the TGI [17] was greater than 25 µM, the GI50 [18] was greater than 25 µM and the TGI [18] was greater than 25 µM. It also gave a GI50 [19] greater than 25 µM, a TGI [19] greater than 25 µM and a GI50 [20] greater than 25 µM. For the same molecule, the TGI [20] was greater than 25 µM, the GI50 [21] was greater than 25 µM and the TGI [21] was greater than 25 µM. It also gave a GI50 [22] greater than 25 µM, a TGI [22] greater than 25 µM and a GI50 [23] greater than 25 µM. It also gave a TGI [23] greater than 25 µM, a GI50 [24] greater than 25 µM and a TGI [24] greater than 25 µM. The GI50 [25] was greater than 25 µM, the TGI [25] was greater than 25 µM and the GI50 [26] was greater than 25 µM. For the same molecule, the TGI [26] was greater than 25 µM, the GI50 [27] was greater than 25 µM and the TGI [27] was greater than 25 µM. It also gave a GI50 [28] greater than 25 µM, a TGI [28] greater than 25 µM and a GI50 [29] greater than 25 µM.
